Test results taken from article PMC8698657, “Absorption and Transport Characteristics and Mechanisms of Carnosic Acid” (Biology, 2021).
Like-named read-outs stand apart in the source and are kept apart here.

Experiments:
[1] = Body weight, organ weights and appearance of CA-fed mice; assay type: in vivo; details: 50 mg/kg/daily oral gavage
Excerpt: The animal experiment protocol was approved by the Institutional Animal Care and Use Committee of Guangzhou Medical University (#GY2020-067, 30 July 2020). Male ICR mice aged 5–6 weeks were kept in a specific-pathogen-free environment with 12-h light/dark cycles. […] Both groups were allowed to eat and drink ad libitum. Four hours after the last gavage, the mice were anesthetized, and their eyeballs were removed for blood collection. They were sacrificed and immediately dissected in the supine position. Serum, major organs (heart, liver, lung, stomach, spleen, kidney, small intestine, cecum, and colon), and the contents of the stomach, small intestine, cecum, and colon were collected, weighed, and stored at −80 °C.

[2] = cited from earlier work
[3] = MTT assay, non-toxic dose range of CA; assay type: cell-based; details: human, Caco-2 cells, CA 100 μM, vs untreated cells, read-out: cell viability
Method: Caco-2 were cultured in EMEM complete medium containing 10% FBS, 1% non-essential amino acids, and 1% penicillin-streptomycin double antibody, and the culture conditions were 37 °C, 5% CO2, in a constant temperature incubator [16]. We first established non-toxic dose ranges of CA in Caco-2 cells using MTT assay. Dimethylsulfoxide (DMSO) was used as the vehicle to deliver CA to the cells. The final concentration of DMSO in all experiments was 0.1% (v/v) in cell culture media. Caco-2 cells were seeded in a 96-well plate at a cell density of 5 × 10^4 cells/mL per well, and cultured under 5% CO2 and 37 °C for 24 h. A quantity of 200 μL of medium was added to each well to obtain a series of CA solutions (concentrations of 25, 50, 75, and 100 μmoL). After 48 h of treatment, Caco-2 cells were subjected to the MTT assay as described previously. For the transport study, Caco-2 cells were seeded on the apical compartment (AP) of 12-well Transwell plates at a density of 2 × 10^5 cells/mL. The complete culture medium was added into basolateral (BL) and AP compartments. The basolateral medium was replaced every other day.

Caco-2 cell monolayer = experiment: Effect of verapamil, PEG 400 and EDTA on trans-enterocyte transport of CA; assay type: in vitro ADME, human
Method: (§1) CA was dissolved in HBSS solution at 50, 75, and 100 μM. The HBSS solution containing CA combined with 0.5% Tween 80, 5 mmol/L EDTA or 5% PEG 400 was prepared. The cumulative migration (Qr), apparent permeability coefficient (Papp), and the Papp value of bi-direction transport of CA were calculated according to formulas.
(§2) The 0.5 mL HBSS solution containing CA (50, 75, and 100 μM) combined with 100 μmoL/L verapamil, 5% PEG 400, or 5 mmol/L EDTA was added to the AP side of the Transwell plate, and 1.5 mL HBSS solution was added to the BL side. The effect of verapamil, Tween 80, PEG 400, and EDTA on the trans-enterocyte of CA was investigated according to the method described above. The TEER value of each Transwell chamber was measured.
(§3) The cryopreserved Transwell samples were transferred to a 15 mL centrifuge tube, and any remaining liquid was fully washed using 1 mL of 50% methanol solution which was also transferred to the 15 mL centrifuge tube. The mixture was vortexed for 1 min, and 6 mL of ethyl acetate solution was added to the tube and vortexed for another 2 min. The mixture was centrifuged at 6000 rpm/min at 4 °C for 10 min. The supernatant was dried under vacuum, dissolved in 5% phosphoric acid methanol solution, and filtered through a 0.22 μm microporous membrane. The concentration of CA was determined by HPLC as described above.

[4] = as above; assay type: in vitro ADME, human; details: human, read-out: Papp AP to BL; for Papp A→B at 50 μM / Papp A→B at 75 μM / Papp A→B at 100 μM: Average of 0.5-3.0 h
Method: as §1, §2, §3

[5] = Caco-2, CA 50 μM, + 5 mmoL/L EDTA
[6] = Caco-2, CA 75 μM, + 5 mmoL/L EDTA
[7] = Caco-2, CA 100 μM, + 5% PEG 400
[8] = Caco-2, CA 100 μM, + 5 mmoL/L EDTA
[9] = Caco-2, with verapamil 100 μmol/L, CA 50 μM, + 100 μmoL/L verapamil
[10] = Caco-2, with verapamil 100 μmol/L, CA 75 μM, + 100 μmoL/L verapamil
[11] = Caco-2, with verapamil 100 μmol/L, CA 100 μM, + 100 μmoL/L verapamil
[12] = Caco-2, with verapamil 100 μmoL/L, CA 75 μM, + 100 μmoL/L verapamil

CC(C)c1cc2c(c(O)c1O)[C@@]1(C(=O)O)CCCC(C)(C)[C@@H]1CC2 [CA, Carnosic acid]
adverse effects [1]: not associated with noticeable adverse effects
body weight and weights of liver and spleen, CA-fed vs control mice [1]: no significant difference
Body Weight ([1]; week 1): 33.2 ± 0.9 g
Body Weight ([1]; week 2): 34.8 ± 2.5 g
Body Weight ([1]; week 3): 37.1 ± 1.8 g
Body Weight ([1]; week 4): 38.9 ± 2.4 g
Body Weight ([1]; week 5): 41.2 ± 3.1 g
toxicity of orally administered CA ([2]; 64.3 and 90 mg/kg oral): nontoxic
circulating concentration ([2]; rats, 4 h after oral gavage): 0.39 µg/mL
main elimination route ([2]; rats, oral 64.3 ± 5.8 mg/kg): fecal excretion
overall bioavailability ([2]; rats, oral): 40–65%
viability at 48 h, 100 μM [3]: > 90%
increase of Papp (AP to BL) in the presence of EDTA vs control (Caco-2 cell monolayer; 5 mmol/L EDTA): ~ 1.5 fold
active efflux / P-gp substrate status (Caco-2 cell monolayer; from effect of verapamil and PEG 400 on Papp (AP to BL)): could be a substrate of P-gp
Papp A→B at 0.5 h, 50 μM ([4]; Caco-2, CA 50 μM, + 5% PEG 400): 3.76 ± 0.17 ×10⁻⁶ cm/s
Papp A→B at 0.5 h, 50 μM [4, 5]: 0.5 ± 0.01 ×10⁻⁶ cm/s
Papp A→B at 1 h, 50 μM ([4]; Caco-2, CA 50 μM, + 5% PEG 400): 3.96 ± 0.1 ×10⁻⁶ cm/s
Papp A→B at 1 h, 50 μM [4, 5]: 0.24 ± 0.08 ×10⁻⁶ cm/s
Papp A→B at 1.5 h, 50 μM ([4]; Caco-2, CA 50 μM, + 5% PEG 400): 2.35 ± 0.01 ×10⁻⁶ cm/s
Papp A→B at 1.5 h, 50 μM [4, 5]: 0.62 ± 0.02 ×10⁻⁶ cm/s
Papp A→B at 2 h, 50 μM ([4]; Caco-2, CA 50 μM, + 5% PEG 400): 1.86 ± 0.35 ×10⁻⁶ cm/s
Papp A→B at 2 h, 50 μM [4, 5]: 0.92 ×10⁻⁶ cm/s
Papp A→B at 2.5 h, 50 μM ([4]; Caco-2, CA 50 μM, + 5% PEG 400): 1.89 ± 0.04 ×10⁻⁶ cm/s
Papp A→B at 2.5 h, 50 μM [4, 5]: 0.95 ± 0.02 ×10⁻⁶ cm/s
Papp A→B at 3 h, 50 μM ([4]; Caco-2, CA 50 μM, + 5% PEG 400): 2.34 ± 0.01 ×10⁻⁶ cm/s
Papp A→B at 3 h, 50 μM [4, 5]: 1.49 ± 0.02 ×10⁻⁶ cm/s
Papp A→B at 50 μM ([4]; Caco-2, CA 50 μM, + 5% PEG 400): 2.69 ± 0.04 ×10⁻⁶ cm/s
Papp A→B at 50 μM [4, 5]: 0.79 ± 0.03 ×10⁻⁶ cm/s
Papp A→B at 0.5 h, 75 μM ([4]; Caco-2, CA 75 μM, + 5% PEG 400): 3.9 ± 0.1 ×10⁻⁶ cm/s
Papp A→B at 0.5 h, 75 μM [4, 6]: 0.92 ± 0.08 ×10⁻⁶ cm/s
Papp A→B at 1 h, 75 μM ([4]; Caco-2, CA 75 μM, + 5% PEG 400): 2.99 ± 0.09 ×10⁻⁶ cm/s
Papp A→B at 1 h, 75 μM [4, 6]: 1.9 ± 0.08 ×10⁻⁶ cm/s
Papp A→B at 1.5 h, 75 μM ([4]; Caco-2, CA 75 μM, + 5% PEG 400): 2.72 ± 0.46 ×10⁻⁶ cm/s
Papp A→B at 1.5 h, 75 μM [4, 6]: 1.94 ± 0.07 ×10⁻⁶ cm/s
Papp A→B at 2 h, 75 μM ([4]; Caco-2, CA 75 μM, + 5% PEG 400): 2.35 ± 0.1 ×10⁻⁶ cm/s
Papp A→B at 2 h, 75 μM [4, 6]: 2.08 ± 0.03 ×10⁻⁶ cm/s
Papp A→B at 2.5 h, 75 μM ([4]; Caco-2, CA 75 μM, + 5% PEG 400): 1.52 ± 0.06 ×10⁻⁶ cm/s
Papp A→B at 2.5 h, 75 μM [4, 6]: 1.28 ± 0.1 ×10⁻⁶ cm/s
Papp A→B at 3 h, 75 μM ([4]; Caco-2, CA 75 μM, + 5% PEG 400): 1.19 ± 0.06 ×10⁻⁶ cm/s
Papp A→B at 3 h, 75 μM [4, 6]: 0.57 ± 0.01 ×10⁻⁶ cm/s
Papp A→B at 75 μM ([4]; Caco-2, CA 75 μM, + 5% PEG 400): 1.45 ± 0.08 ×10⁻⁶ cm/s
Papp A→B at 75 μM [4, 6]: 1.45 ± 0.05 ×10⁻⁶ cm/s
Papp A→B at 0.5 h, 100 μM [4, 7]: 3.21 ± 0.47 ×10⁻⁶ cm/s
Papp A→B at 0.5 h, 100 μM [4, 8]: 0.38 ×10⁻⁶ cm/s
Papp A→B at 1 h, 100 μM [4, 7]: 3.59 ± 0.1 ×10⁻⁶ cm/s
Papp A→B at 1 h, 100 μM [4, 8]: 2.25 ± 0.09 ×10⁻⁶ cm/s
Papp A→B at 1.5 h, 100 μM [4, 7]: 2.89 ± 0.05 ×10⁻⁶ cm/s
Papp A→B at 1.5 h, 100 μM [4, 8]: 1.96 ± 0.07 ×10⁻⁶ cm/s
Papp A→B at 2 h, 100 μM [4, 7]: 2.25 ± 0.02 ×10⁻⁶ cm/s
Papp A→B at 2 h, 100 μM [4, 8]: 3.01 ± 0.03 ×10⁻⁶ cm/s
Papp A→B at 2.5 h, 100 μM [4, 7]: 2.44 ± 0.01 ×10⁻⁶ cm/s
Papp A→B at 2.5 h, 100 μM [4, 8]: 1.82 ± 0.08 ×10⁻⁶ cm/s
Papp A→B at 3 h, 100 μM [4, 7]: 2.14 ± 0.02 ×10⁻⁶ cm/s
Papp A→B at 3 h, 100 μM [4, 8]: 1.56 ± 0.07 ×10⁻⁶ cm/s
Papp A→B at 100 μM [4, 7]: 2.76 ± 0.07 ×10⁻⁶ cm/s
Papp A→B at 100 μM [4, 8]: 1.83 ± 0.05 ×10⁻⁶ cm/s
Papp A→B at 0.5 h, 50 μM [4, 9]: 1.98 ± 0.06 ×10⁻⁶ cm/s
Papp A→B at 1 h, 50 μM [4, 9]: 1.89 ± 0.09 ×10⁻⁶ cm/s
Papp A→B at 1.5 h, 50 μM [4, 9]: 1.84 ± 0.06 ×10⁻⁶ cm/s
Papp A→B at 2 h, 50 μM [4, 9]: 2.08 ± 0.1 ×10⁻⁶ cm/s
Papp A→B at 2.5 h, 50 μM [4, 9]: 0.95 ± 0.03 ×10⁻⁶ cm/s
Papp A→B at 3 h, 50 μM [4, 9]: 1.37 ± 0.09 ×10⁻⁶ cm/s
Papp A→B at 3 h, 75 μM [4, 10]: 0.69 ± 0.01 ×10⁻⁶ cm/s
Papp A→B at 75 μM [4, 10]: 1.53 ± 0.04 ×10⁻⁶ cm/s
Papp A→B at 0.5 h, 100 μM [4, 11]: 1.26 ± 0.02 ×10⁻⁶ cm/s
Papp A→B at 1 h, 100 μM [4, 11]: 1.7 ± 0.01 ×10⁻⁶ cm/s
Papp A→B at 1.5 h, 100 μM [4, 11]: 2.99 ± 0.03 ×10⁻⁶ cm/s
Papp A→B at 2 h, 100 μM [4, 11]: 1.24 ± 0.02 ×10⁻⁶ cm/s
Papp A→B at 2.5 h, 100 μM [4, 11]: 0.95 ± 0.05 ×10⁻⁶ cm/s
Papp A→B at 3 h, 100 μM [4, 11]: 1.09 ± 0.02 ×10⁻⁶ cm/s
Papp A→B at 100 μM [4, 11]: 1.53 ± 0.07 ×10⁻⁶ cm/s
Papp A→B at 50 μM ([4]; Caco-2, with verapamil 100 μmoL/L, CA 50 μM, + 100 μmoL/L verapamil): 1.5 ± 0.02 ×10⁻⁶ cm/s
Papp A→B at 0.5 h, 75 μM [4, 12]: 1.12 ± 0.01 ×10⁻⁶ cm/s
Papp A→B at 1 h, 75 μM [4, 12]: 1.32 ± 0.01 ×10⁻⁶ cm/s
Papp A→B at 1.5 h, 75 μM [4, 12]: 0.85 ± 0.03 ×10⁻⁶ cm/s
Papp A→B at 2 h, 75 μM [4, 12]: 1.94 ± 0.06 ×10⁻⁶ cm/s
Papp A→B at 2.5 h, 75 μM [4, 12]: 0.87 ± 0.1 ×10⁻⁶ cm/s
